The text below walks through data of paper PMC6691785, “Computer-aided design and synthesis of 3-carbonyl-5-phenyl-1H-pyrazole as highly selective and potent BRAFV600E and CRAF inhibitor” (Journal of Enzyme Inhibition and Medicinal Chemistry, 2019).

Test [1] concerns the target T1, BRAFV600E (Homo sapiens, UniProt P15056, V600E). Particulars: selectivity over BRAFWT; cited from earlier work.
The target of test [2] is T2, CRAF (Homo sapiens, UniProt P04049). Particulars: selectivity over BRAFWT; cited from earlier work.
Test [3] deals with T2, CRAF. Description: Enzymatic activity (IC50) on CRAF. Particulars: for IC50: enzymatic activity. The test is classed as biochemical. The procedure:
(§1) The IC50 values for BRAFV600E and CRAF were measured for each of the 12 compounds synthesised (Table 1). The compounds were all designed as 1, 3, 5-substituted benzyl group hydrophobic tails to maintain the selectivity of the previous series.

A further test addresses BRAFWT (Homo sapiens, UniProt P15056). Description: Enzymatic activity (IC50) on BRAFWT. The test is classed as biochemical. The procedure: (§2) Next, we used kinase panel screening in duplicate for compound 23b over 35 different kinases at a single-dose concentration of 10 μM (Table 2). The compound was indeed a selective BRAFV600E and CRAF inhibitor with an excellent selectivity profile. This compound has an inhibitory activity of more than 90% on CRAF and BRAF V600E at a concentration of 10 μM; the inhibition activity was less than 20% for most other kinases, including wild-type BRAF. We further determined the IC50 value of 23b on wild-type BRAF to be over than 20 μM, where we could confirm selectivity (Table 3). In order to investigate the effect of 23b in living cells, the human colon cancer cell line […] expressing wild-type BRAF and the malignant melanoma A375 cell line expressing BRAFV600E were treated with increasing concentrations of 23b.

Test [4] addresses T1, BRAFV600E. Put plainly: Enzymatic activity (IC50) on BRAFV600E. The test is classed as biochemical. Particulars: for IC50: enzymatic activity; for times more potent for BRAFV600E than the previous series: versus N-(3-(3-alkyl-1H-pyrazol-5-yl)phenyl)-aryl amide derivatives. As for the experimental part:
as §1

Another test relates to 35 different kinases. Description: Kinase panel screening, single dose 10 μM, other kinases of the panel. As to conditions: in duplicate, most other kinases of the 35-kinase panel. Type of test: biochemical. As for the experimental part: as §2
(§3) We designed and synthesized selective, efficacious inhibitors for BRAFV600E and CRAF by in silico modeling using the Maestro programme.[20] […] We attempted kinase panel screening for compound 23b over 35 different kinases at a single-dose concentration of 10 μM (Table 2, performed in duplicate). The compound was, indeed, a selective BRAFV600E and CRAF inhibitor with an excellent selectivity profile. This compound has an inhibitory activity of 99% on BRAF V600E and CRAF at this concentration. The inhibition activity was less than 20% in most other kinases, including BRAFWT.

The subject of test [5] is malignant melanoma A375 cell line expressing BRAFV600E. Put plainly: MTT assay, A375 cells. Type of test: cell-based. Particulars: Homo sapiens, A-375. The procedure: as §2
The target in test [6] is T2, CRAF. Put plainly: Kinase panel screening, single dose 10 μM, CRAF. The test is classed as biochemical. As to conditions: in duplicate, read-out: inhibitory activity on CRAF. As for the experimental part:
as §2, §3

The target of test [7] is T1, BRAFV600E. Description: Kinase panel screening, single dose 10 μM, BRAF V600E. The test is classed as biochemical. As to conditions: in duplicate, read-out: inhibitory activity on BRAF V600E. The procedure:
as §2, §3

Test [8] has as its system human colon cancer cell line SW620 expressing wild-type BRAF. Put plainly: MTT assay, SW620 cells. The test is classed as cell-based. The procedure: as §2
A further test has as its target wild-type BRAF (Homo sapiens, UniProt P15056). Put plainly: Kinase panel screening, single dose 10 μM, wild-type BRAF. The test is classed as biochemical. As to conditions: in duplicate. As for the experimental part: as §2, §3

SMILES strings stand for the structures. Some results are limits rather than exact numbers.

BRAFWT, sequence (P15056 whole entry): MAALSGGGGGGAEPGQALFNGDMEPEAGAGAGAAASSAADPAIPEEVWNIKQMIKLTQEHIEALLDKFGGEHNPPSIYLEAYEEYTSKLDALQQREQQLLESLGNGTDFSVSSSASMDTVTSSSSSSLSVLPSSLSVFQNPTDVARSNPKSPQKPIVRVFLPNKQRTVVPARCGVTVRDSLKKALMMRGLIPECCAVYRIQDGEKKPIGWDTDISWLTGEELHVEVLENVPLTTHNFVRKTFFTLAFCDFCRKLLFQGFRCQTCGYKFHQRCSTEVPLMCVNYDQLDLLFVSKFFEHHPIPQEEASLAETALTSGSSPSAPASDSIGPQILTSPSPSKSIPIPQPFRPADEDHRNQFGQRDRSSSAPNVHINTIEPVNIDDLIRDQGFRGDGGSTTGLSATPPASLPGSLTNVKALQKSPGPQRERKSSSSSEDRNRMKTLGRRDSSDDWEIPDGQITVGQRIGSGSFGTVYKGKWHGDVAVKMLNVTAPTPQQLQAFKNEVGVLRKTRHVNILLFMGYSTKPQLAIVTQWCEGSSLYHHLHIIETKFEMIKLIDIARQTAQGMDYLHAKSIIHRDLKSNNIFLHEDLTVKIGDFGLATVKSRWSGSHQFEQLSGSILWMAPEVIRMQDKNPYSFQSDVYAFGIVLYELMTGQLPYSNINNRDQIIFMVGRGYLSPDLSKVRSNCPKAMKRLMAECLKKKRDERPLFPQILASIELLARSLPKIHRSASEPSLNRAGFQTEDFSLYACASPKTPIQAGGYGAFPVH
T2 sequence (P04049 whole entry): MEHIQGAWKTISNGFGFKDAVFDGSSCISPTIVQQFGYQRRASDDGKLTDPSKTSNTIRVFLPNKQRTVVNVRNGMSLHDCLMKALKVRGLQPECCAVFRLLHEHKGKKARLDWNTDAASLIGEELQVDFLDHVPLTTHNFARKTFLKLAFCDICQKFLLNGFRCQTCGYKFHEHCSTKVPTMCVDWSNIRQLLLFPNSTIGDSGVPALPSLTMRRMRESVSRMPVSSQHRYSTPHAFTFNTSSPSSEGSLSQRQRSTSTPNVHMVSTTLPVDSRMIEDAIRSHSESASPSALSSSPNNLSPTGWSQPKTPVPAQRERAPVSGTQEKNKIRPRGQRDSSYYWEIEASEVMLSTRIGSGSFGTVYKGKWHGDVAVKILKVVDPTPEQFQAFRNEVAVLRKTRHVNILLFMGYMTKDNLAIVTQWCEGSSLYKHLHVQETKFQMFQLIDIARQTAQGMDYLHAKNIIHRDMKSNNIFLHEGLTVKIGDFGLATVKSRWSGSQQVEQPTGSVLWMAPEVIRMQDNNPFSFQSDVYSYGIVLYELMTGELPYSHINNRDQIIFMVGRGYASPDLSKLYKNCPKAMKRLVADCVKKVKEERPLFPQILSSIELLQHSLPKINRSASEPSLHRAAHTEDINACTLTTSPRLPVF
T1 sequence (P15056 whole entry V600E): as the sequence (P15056 whole entry) above, with V600E counted along it
wild-type BRAF, sequence (P15056 whole entry): as the sequence (P15056 whole entry) above

Consider `CC(C)c1cc(-c2cccc(NC(=O)c3cc(N4CCN(C)CC4)cc(C(F)(F)F)c3)c2)[nH]n1` [Compound 2, N-(3–(3-alkyl-1H-pyrazol-5-yl)phenyl)-aryl amide], for which, on BRAFV600E [1], the “times more potent on BRAFV600E than on BRAFWT” value is 20 times. Also, the “times more potent on CRAF than on BRAFWT” value at CRAF [2] is 126 times.

For the molecule `O=C(Nc1cccc(-c2cc(C(=O)NCCN3CCOCC3)[nH]n2)c1)c1cc(N2CCOCC2)cc(C(F)(F)F)c1` [Compound 20a], the concentration for half-maximal inhibition (IC50) came to 1500 nM against CRAF [3], 16400 nM against BRAFWT and 2800 nM at BRAFV600E [4].

Turning to `Cc1nccn1-c1cc(C(=O)Nc2cccc(-c3cc(C(=O)NCCN4CCOCC4)[nH]n3)c2)cc(C(F)(F)F)c1` [Compound 20b], the IC50 on CRAF [3] stood at 590 nM; on BRAFWT it was 13100 nM; on BRAFV600E [4] it was 980 nM.

Regarding `Cc1cn(-c2cc(C(=O)Nc3cccc(-c4cc(C(=O)NCCN5CCOCC5)[nH]n4)c3)cc(C(F)(F)F)c2)cn1` [Compound 20c], the IC50 against CRAF [3] turned out to be 580 nM; at BRAFWT, 14700 nM; at BRAFV600E [4] it was 910 nM.

With `CN1CCN(c2cc(C(=O)Nc3cccc(-c4cc(C(=O)NCCN5CCOCC5)[nH]n4)c3)cc(C(F)(F)F)c2)CC1` [Compound 20d], the IC50 at CRAF [3] is 1150 nM; against BRAFWT it was greater than 20000 nM; at BRAFV600E [4], 2700 nM.

As to `O=C(Nc1cccc(-c2cc(C(=O)NCCN3CCNCC3)[nH]n2)c1)c1cc(N2CCOCC2)cc(C(F)(F)F)c1` [Compound 22a], the IC50 is 1600 nM against CRAF [3], greater than 20000 nM on BRAFWT and 2090 nM on BRAFV600E [4].

Take `Cc1nccn1-c1cc(C(=O)Nc2cccc(-c3cc(C(=O)NCCN4CCNCC4)[nH]n3)c2)cc(C(F)(F)F)c1` [Compound 22b]: the figures for the IC50 against CRAF [3], against BRAFWT and against BRAFV600E [4] were 830 nM, 12900 nM and 1260 nM, respectively.

With `Cc1cn(-c2cc(C(=O)Nc3cccc(-c4cc(C(=O)NCCN5CCNCC5)[nH]n4)c3)cc(C(F)(F)F)c2)cn1` [Compound 22c], the figures for the IC50 on CRAF [3] and on BRAFV600E [4] were 580 nM and 1510 nM, respectively.

For `O=C(Nc1cccc(-c2cc(C(=O)OCCN3CCOCC3)[nH]n2)c1)c1cc(N2CCOCC2)cc(C(F)(F)F)c1` [Compound 23a], the half-inhibitory concentration (IC50) at CRAF [3] was 130 nM; against BRAFWT, greater than 20000 nM; against BRAFV600E [4], 680 nM.

For the molecule `Cc1nccn1-c1cc(C(=O)Nc2cccc(-c3cc(C(=O)OCCN4CCOCC4)[nH]n3)c2)cc(C(F)(F)F)c1` [Compound 23b], the “inhibition activity for most other kinases” value with 35 different kinases is “less than 20%”. Besides, the 50% growth inhibitory concentration (GI50) in test [5] was 70 nM; in test [8] (Homo sapiens, SW-620, SW620 cells expressing BRAFWT), greater than 10000 nM. For the same molecule, the inhibition at 10 µM is greater than 90% at CRAF [6], greater than 90% at BRAFV600E [7] and less than 20% on wild-type BRAF. Further, the IC50 is 20 nM against CRAF [3], greater than 20000 nM at BRAFWT and 100 nM at BRAFV600E [4]. In addition, the “times more potent for CRAF than the previous series” value at CRAF [3] (versus N-(3-(3-alkyl-1H-pyrazol-5-yl)phenyl)-aryl amide derivatives) was 5 times. Also, the “times more potent for BRAFV600E than the previous series” value on BRAFV600E [4] is 7 times; on BRAFV600E [4] (listed as 23 b), “seven”. The “inhibition of the proliferation” value in [8] (increasing concentrations, SW620 cells expressing BRAFWT) was “not in the cells expressing BRAFWT”.

`Cc1cn(-c2cc(C(=O)Nc3cccc(-c4cc(C(=O)OCCN5CCOCC5)[nH]n4)c3)cc(C(F)(F)F)c2)cn1` [Compound 23c]: the half-maximal inhibitory concentration (IC50) is 60 nM against CRAF [3], greater than 20000 nM at BRAFWT and 330 nM against BRAFV600E [4].

Consider `CN1CCN(c2cc(C(=O)Nc3cccc(-c4cc(C(=O)OCCN5CCOCC5)[nH]n4)c3)cc(C(F)(F)F)c2)CC1` [Compound 23d], for which the 50% inhibitory concentration (IC50) against CRAF [3] was 160 nM; at BRAFWT, greater than 20000 nM; at BRAFV600E [4], 680 nM.

In the case of `O=C(Nc1cccc(-c2cc(C(=O)OCCN3CCCCC3)[nH]n2)c1)c1cc(N2CCOCC2)cc(C(F)(F)F)c1` [Compound 24], the IC50 is 210 nM against CRAF [3], greater than 20000 nM on BRAFWT and 400 nM at BRAFV600E [4].
